Reference: ChEMBL document CHEMBL5291721, “A preclinical secondary pharmacology resource illuminates target-adverse drug reaction associations of marketed drugs” (Nat Commun, 2023)

Assays:
[1] = target: T1, Adenosine receptor A1 (Homo sapiens, UniProt P30542)
T1 sequence (P30542 whole entry): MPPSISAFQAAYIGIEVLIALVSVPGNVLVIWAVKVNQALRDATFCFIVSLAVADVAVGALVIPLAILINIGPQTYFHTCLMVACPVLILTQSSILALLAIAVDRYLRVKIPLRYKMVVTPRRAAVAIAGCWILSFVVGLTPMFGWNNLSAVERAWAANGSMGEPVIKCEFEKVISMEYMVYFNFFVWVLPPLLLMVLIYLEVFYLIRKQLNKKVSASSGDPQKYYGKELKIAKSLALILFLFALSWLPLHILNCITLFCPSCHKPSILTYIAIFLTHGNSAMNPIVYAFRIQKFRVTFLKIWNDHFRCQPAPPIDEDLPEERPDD

[2] = target: T2, Type-1 angiotensin II receptor (Homo sapiens, UniProt P30556)
T2 sequence (P30556 whole entry): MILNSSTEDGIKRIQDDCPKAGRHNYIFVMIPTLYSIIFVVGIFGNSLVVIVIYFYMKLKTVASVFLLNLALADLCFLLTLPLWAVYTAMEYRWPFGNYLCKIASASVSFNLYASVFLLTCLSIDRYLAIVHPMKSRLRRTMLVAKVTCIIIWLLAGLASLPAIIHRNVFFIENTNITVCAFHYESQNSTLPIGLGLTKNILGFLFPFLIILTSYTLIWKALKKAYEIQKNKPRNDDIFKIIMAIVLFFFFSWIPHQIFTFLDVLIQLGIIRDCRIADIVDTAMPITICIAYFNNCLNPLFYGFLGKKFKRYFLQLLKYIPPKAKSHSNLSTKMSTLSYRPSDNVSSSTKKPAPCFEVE

[3] = target: Vasopressin V2 receptor (Homo sapiens, UniProt P30518)
[4] = target: T3, Cholecystokinin receptor type A (Homo sapiens, UniProt P32238)
T3 sequence (P32238 whole entry): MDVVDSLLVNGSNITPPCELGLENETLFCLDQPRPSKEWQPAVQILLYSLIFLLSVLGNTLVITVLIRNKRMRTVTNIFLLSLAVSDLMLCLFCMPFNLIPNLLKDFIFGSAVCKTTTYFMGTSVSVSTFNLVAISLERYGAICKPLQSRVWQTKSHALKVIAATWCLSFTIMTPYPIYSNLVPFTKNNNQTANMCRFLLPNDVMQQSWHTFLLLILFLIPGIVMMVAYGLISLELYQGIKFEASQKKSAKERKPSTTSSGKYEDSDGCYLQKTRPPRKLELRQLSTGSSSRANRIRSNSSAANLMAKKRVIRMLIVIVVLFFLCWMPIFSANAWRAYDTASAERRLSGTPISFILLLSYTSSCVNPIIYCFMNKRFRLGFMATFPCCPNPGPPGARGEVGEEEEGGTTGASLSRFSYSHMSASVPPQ

[5] = target: Glutamate receptor ionotropic, NMDA 1 (Rattus norvegicus, UniProt P35439)
[6] = target: Voltage-gated inwardly rectifying potassium channel KCNH2 (Homo sapiens, UniProt Q12809); format: functional
[7] = target: Motilin receptor (Homo sapiens, UniProt O43193)
[8] = target: Delta-type opioid receptor (Homo sapiens, UniProt P41143)
[9] = target: Kappa-type opioid receptor (Homo sapiens, UniProt P41145)
[10] = target: Histamine H3 receptor (Homo sapiens, UniProt Q9Y5N1)
Also: assay procedure not described here.

Sequence of Voltage-gated inwardly rectifying potassium channel KCNH2 (Q12809 whole entry): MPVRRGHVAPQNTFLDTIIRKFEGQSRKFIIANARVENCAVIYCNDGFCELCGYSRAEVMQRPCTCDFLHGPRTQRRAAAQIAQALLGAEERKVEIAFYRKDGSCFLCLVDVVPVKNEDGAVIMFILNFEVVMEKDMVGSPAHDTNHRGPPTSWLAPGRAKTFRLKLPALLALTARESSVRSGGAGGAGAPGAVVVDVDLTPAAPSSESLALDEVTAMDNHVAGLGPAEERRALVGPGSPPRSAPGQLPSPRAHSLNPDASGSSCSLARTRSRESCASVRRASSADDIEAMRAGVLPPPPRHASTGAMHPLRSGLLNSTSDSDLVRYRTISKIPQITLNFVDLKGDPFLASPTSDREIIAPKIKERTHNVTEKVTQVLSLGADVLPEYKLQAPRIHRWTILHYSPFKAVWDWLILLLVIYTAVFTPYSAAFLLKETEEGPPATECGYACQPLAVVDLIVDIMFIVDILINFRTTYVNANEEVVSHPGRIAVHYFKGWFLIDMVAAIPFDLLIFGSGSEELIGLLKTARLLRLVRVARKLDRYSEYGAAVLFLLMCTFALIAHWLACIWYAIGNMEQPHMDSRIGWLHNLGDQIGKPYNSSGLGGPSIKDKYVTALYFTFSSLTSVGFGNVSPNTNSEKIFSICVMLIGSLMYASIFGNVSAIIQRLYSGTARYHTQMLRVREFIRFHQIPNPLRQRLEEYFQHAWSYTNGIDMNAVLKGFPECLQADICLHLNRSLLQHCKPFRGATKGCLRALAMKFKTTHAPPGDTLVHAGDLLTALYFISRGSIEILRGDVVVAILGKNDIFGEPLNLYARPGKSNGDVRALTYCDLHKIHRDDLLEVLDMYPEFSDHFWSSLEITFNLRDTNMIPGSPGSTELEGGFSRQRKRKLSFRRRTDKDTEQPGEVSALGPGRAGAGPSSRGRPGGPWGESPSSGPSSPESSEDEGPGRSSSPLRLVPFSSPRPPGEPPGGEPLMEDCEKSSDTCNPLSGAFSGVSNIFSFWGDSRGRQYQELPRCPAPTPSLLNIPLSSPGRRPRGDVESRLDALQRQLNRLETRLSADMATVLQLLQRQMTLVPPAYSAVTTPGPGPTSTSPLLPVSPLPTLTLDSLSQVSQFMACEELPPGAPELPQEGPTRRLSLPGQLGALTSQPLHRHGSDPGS
Sequence of Kappa-type opioid receptor (P41145 whole entry): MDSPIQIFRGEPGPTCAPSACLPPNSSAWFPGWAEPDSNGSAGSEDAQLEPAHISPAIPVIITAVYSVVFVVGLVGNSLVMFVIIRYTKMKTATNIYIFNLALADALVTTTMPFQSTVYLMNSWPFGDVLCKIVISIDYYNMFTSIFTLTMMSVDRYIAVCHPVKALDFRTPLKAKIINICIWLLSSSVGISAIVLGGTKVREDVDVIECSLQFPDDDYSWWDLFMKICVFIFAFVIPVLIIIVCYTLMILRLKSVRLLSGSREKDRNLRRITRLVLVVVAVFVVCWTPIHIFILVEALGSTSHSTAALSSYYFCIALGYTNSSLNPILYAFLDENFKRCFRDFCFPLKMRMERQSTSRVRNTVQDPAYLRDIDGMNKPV
Sequence of Vasopressin V2 receptor (P30518 whole entry): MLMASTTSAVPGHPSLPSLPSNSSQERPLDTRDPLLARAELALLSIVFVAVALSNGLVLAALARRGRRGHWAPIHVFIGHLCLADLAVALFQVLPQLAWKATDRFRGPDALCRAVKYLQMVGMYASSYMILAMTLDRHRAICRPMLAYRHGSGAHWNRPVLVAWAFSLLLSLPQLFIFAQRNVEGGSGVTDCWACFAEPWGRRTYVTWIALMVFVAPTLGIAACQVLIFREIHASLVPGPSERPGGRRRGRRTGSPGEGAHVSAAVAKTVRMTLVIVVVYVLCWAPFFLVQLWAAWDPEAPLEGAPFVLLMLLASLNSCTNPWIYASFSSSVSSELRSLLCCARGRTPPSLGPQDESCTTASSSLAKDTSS
Sequence of Motilin receptor (O43193 whole entry): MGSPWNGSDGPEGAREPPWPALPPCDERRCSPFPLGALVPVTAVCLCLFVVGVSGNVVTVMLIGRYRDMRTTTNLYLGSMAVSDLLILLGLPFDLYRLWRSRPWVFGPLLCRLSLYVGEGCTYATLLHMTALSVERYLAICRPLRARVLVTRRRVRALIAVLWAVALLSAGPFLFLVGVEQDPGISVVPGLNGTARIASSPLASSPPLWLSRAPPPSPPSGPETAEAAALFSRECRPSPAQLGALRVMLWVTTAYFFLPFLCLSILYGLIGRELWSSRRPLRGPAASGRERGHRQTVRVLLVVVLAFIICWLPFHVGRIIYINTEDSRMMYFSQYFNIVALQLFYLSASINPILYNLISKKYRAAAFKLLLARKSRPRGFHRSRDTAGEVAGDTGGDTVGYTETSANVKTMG
Sequence of Delta-type opioid receptor (P41143 whole entry): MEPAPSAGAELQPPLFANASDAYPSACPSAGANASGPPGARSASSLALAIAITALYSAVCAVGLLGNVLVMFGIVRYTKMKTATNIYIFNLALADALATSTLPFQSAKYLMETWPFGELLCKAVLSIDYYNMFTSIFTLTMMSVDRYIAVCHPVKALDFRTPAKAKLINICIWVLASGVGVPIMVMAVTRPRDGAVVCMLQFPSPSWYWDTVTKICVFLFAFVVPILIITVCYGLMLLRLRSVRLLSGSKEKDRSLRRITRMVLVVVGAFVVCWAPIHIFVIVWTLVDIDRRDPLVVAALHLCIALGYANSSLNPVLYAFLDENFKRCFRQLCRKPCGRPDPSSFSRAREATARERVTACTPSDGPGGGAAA
Sequence of Histamine H3 receptor (Q9Y5N1 whole entry): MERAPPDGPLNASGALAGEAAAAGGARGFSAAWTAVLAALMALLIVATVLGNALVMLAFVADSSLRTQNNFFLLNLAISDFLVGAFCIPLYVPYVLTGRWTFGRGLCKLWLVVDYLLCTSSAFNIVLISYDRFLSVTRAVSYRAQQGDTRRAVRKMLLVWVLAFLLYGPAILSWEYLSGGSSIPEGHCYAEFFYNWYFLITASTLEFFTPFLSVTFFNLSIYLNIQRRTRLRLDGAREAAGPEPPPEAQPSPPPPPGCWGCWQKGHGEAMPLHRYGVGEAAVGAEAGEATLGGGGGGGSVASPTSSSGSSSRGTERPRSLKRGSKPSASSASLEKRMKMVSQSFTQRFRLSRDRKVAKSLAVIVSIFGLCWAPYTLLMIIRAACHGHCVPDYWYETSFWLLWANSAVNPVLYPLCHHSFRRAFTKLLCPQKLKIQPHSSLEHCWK

Structure (SMILES)	AC50 [1] [µM]	AC50 [2] [µM]	AC50 [3] [µM]	AC50 [4] [µM]	AC50 [5] [µM]	AC50 [6] [µM]	AC50 [7] [µM]	AC50 [8] [µM]	AC50 [9] [µM]	AC50 [10] [µM]
Oc1cc(O)c(Cl)cn1	> 30	> 30	> 30	> 30	> 30	> 30	> 30	> 30	> 30	> 30
Cc1cc(=O)n(-c2ccccc2)n1C [ANTIPYRINE]	> 30	> 30	> 30	> 30	> 10	> 30	> 10	> 30	> 10	> 10
COc1cc(N)c(Cl)cc1C(=O)NC1CCN(CCCOc2ccc(F)cc2)CC1OC (centres undefined) [CISAPRIDE]	> 30	> 30	> 30	> 30	> 10	–	1.8	> 10	16.7	> 10
CCOC(=O)C(C)(C)Oc1ccc(Cl)cc1 [CLOFIBRATE]	> 30	> 30	> 30	> 30	> 10	> 30	> 10	> 30	> 10	> 10
C[C@@H]1C[C@H]2[C@@H]3CCC4=CC(=O)C=C[C@]4(C)[C@@]3(F)[C@@H](O)C[C@]2(C)[C@@]1(O)C(=O)CO [DEXAMETHASONE]	> 30	> 30	> 30	> 30	> 10	> 30	> 30	> 30	> 10	> 30
CCCCOc1ccc(C(=O)CCN2CCCCC2)cc1 [DYCLONINE]	> 30	> 30	> 30	> 30	> 10	3.3	> 10	> 10	> 10	3.9
CC(C)NC[C@H](O)COc1ccc(CC(N)=O)cc1 [ESATENOLOL]	> 30	> 30	> 30	> 30	> 10	–	> 10	> 10	> 10	–
CN1CCN=C(c2ccccc2)c2cc(Cl)ccc21 [MEDAZEPAM]	> 30	> 30	> 30	> 30	> 30	–	> 30	> 30	0.99	> 30
CC(=O)[C@H]1CC[C@H]2[C@@H]3C[C@H](C)C4=CC(=O)CC[C@]4(C)[C@H]3[C@@H](O)C[C@]12C [MEDRYSONE]	> 10	> 10	> 10	> 10	> 10	> 30	> 10	> 30	> 10	–
CO[C@H]1C[C@H](O[C@H]2CC[C@@]3(C)[C@H](CC[C@@H]4[C@@H]3CC[C@]3(C)[C@@H](C5=CC(=O)OC5)[C@@H](OC(C)=O)C[C@]43O)C2)O[C@@H](C)[C@@H]1O [OLEANDRIN]	–	–	–	–	> 30	> 30	–	> 30	> 30	–
Fc1ccc([C@@H]2CCNC[C@H]2COc2ccc3c(c2)OCO3)cc1 [PAROXETINE]	> 30	> 30	> 30	> 30	> 10	–	> 10	0.83	–	> 10
CCC(=O)O[C@](Cc1ccccc1)(c1ccccc1)[C@H](C)CN(C)C [PROPOXYPHENE]	> 30	> 30	> 30	> 30	> 10	1.74	> 10	11	–	> 10
O=c1c(O)c(-c2ccc(O)c(O)c2)oc2cc(O)cc(O)c12 [QUERCETIN]	–	> 30	–	> 30	–	> 30	> 10	> 30	12.7	> 10
CCN(CC)CCCC(C)Nc1c2ccc(Cl)cc2nc2ccc(OC)cc12 (centres undefined) [QUINACRINE]	–	–	–	–	–	0.7	–	–	–	–
